Results: patent US20230096443A1, “NOVEL NICOTINAMIDE DI-NUCLEOTIDE DERIVATIVES AND USE THEREOF” (NUVAMID SA, priority 2019, published 2023)

Legend:
[1] = system: CYP-induced visceral pain; assay: Acute cyclophosphamide (CYP)-induced cystitis model, von Frey mechanical stimulation; type: in vivo, female Sprague-Dawley rats; details: 500 mg/kg p.o.
Experimental: The aim of the present study was to evaluate, the effects of oral administration of Nicotinamide Mono-Nucleoside (NMN), Pro-drug A (alpha-NMN) and Pro-drug B (compound I-A), compounds I-B and I-C at 500 mg/kg on visceral pain response in the acute cyclophosphamide (CYP)-induced cystitis model in female Sprague-Dawley rats.
Female Sprague-Dawley rats, 7 weeks at delivery
• NMN: 500 mg/kg • Pro-drug A: 500 mg/kg • Pro-drug B (compound I-A): 500 mg/kg • Compound I-B: 500 mg/kg • Compound I-C; 500 mg/kg • Vehicle: distilled water • Route of administration: per os (p.o.), 5 mL/kg • Frequency of administration: once at DO, 15 min prior CYP intraperitoneal (i.p.) injection.
=>lowered threshold=allodynia • Nociceptive score: % of the maximal response (total=9 for 3 pooled applications) for each filament

[2] = system: doxorubicin-induced cardiotoxicity; assay: Model of doxorubicin-induced cardiotoxicity; type: in vivo, male mice; details: 5 days after DOX 20 mg/kg; for survival rate: 180 mg/kg i.p. once daily; for end-systolic LV volume: vs DOX vehicle group; for heart weight: vs DOX vehicle mice
Experimental: The aim of the present study was to evaluate, the effects of i.p administration of Nicotinamide Mononucleotide (NMN), compound I-B and compound I-C at 180 mg/kg in the progression of a cardiotoxicity induced by doxorubicin.
76 male mice, 8-week-old at the arrival were obtained from Janvier Labs, Le Genest St Isle, 53941 St Berthevin, France. Each animal was identified with electronic chip. Each cage was numbered. Based on the animal number/cage and number of cages, the animals were assigned of unique number with the name of group and mice number.
The powder of NMN, compounds I-B and I-C (180 mg/kg) were dissolved in vehicle (the solution is used at room temperature for maximum 1 day). A fresh sample for each administration was prepared every day except the week-end (the solution is prepared on Saturday and is used on Saturday and Sunday).
Cardiotoxicity was induced by a single intraperitoneal injection of doxorubicin (DOX) at 20 mg/kg. Doxorubicin was prepared at 2 mg/mL and volume of administration was 10 mL/Kg.
At D0, mice were injected with DOX (20 mg/kg) by intraperitoneal route.
The treatment with NMN, compounds I-B and I-C was initiated from 5 days before DOX injection, once per day, from D-5 to DO.
Mice were i.p treated with NMN, compounds I-B and I-C 30 min before DOX injection.
Mice were i.p treated with NMN, compounds I-B and I-C for the duration of the experiment (D0 to D5) once per day. Last injection occurred 24 hours before sacrifice.
The bodyweight was assessed at inclusion and at D5.
The survival rate was recorded every day until the end of the experiment (D5).
Retro-orbital blood collection was performed at the inclusion and at 1 and 5 days after the […] with DOX to assess biomarker (LDH and creatinine).
Echocardiography (ECG) was performed 5 days after doxorubicin injection in anesthetized (isoflurane 1.5-2%) animals with non-invasive two-dimensional echocardiography (VF16-5 probe, Siemens, Acuson NX3 Elite). After removing hairs on the chest, numeric images of the heart were obtained in both parasternal long-axis and short axis views.
The following cardiac function were assessed during ECG: • Left ventricle (LV) end-systolic and end-diastolic inner diameter; • LV end-systolic and end-diastolic volume, • Fractionnal shortening; • Ejection fraction; • Heart Rate; and • Anterior and posterior wall thickness in Diastole and in systole.

SS RBCs = assay: RBC sickling under hypoxia ex vivo (sickle cell disease mouse model); type: in vivo, Townes S/S mice; details: 1% O2 for 30 minutes ex vivo
Experimental: The aim of the present study was to evaluate, the effects of i.p. administration of Nicotinamide Mononucleotide (NMN), compound I-B and compound I-C at 185 mg/kg as modulator of red blood cell sickling and their potential role in therapy for sickle cell disease on a mouse model of SCD.
Townes S/S mice on a 129/B6 mixed genetic background.
The powder of NMN, compounds I-B and I-C (185 mg/kg) were dissolved in vehicle (the solution was used at room temperature for maximum 1 day). A fresh sample for each administration was prepared every day except the week-end (the solution is prepared on Saturday and is used on Saturday and Sunday).
In Townes S/S mice, mouse alpha- and beta-globin gene loci are deleted and replaced by human alpha- and beta-globins. When carrying two copies of the beta S allele, mice develop a human sickle cell disease phenotype with sickle-shaped red blood cells seen in blood smears.
Mice were i.p treated with NMN, compounds I-B and I-C during all the experiment (D0 to D15) once per day. Last injection occurred 24 hours before sacrifice.
Retro-orbital blood collection was performed at the inclusion D0 and at D5, D10 and D15 through facial vein bleeding.
Red blood cells collected were submitted to hypoxia (1% O2) for 30 minutes to induce sickling. Percentage of sickle cells was then assessed.
SS RBCs from treated mice were collected at D0, D5, D10 and D15 and were submitted to hypoxia for 30 minutes in a hypoxic chamber (1% O2). Percentage of sickling RBCs was then assessed for each time point with compounds NMN, I-B and I-C.

[3] = after 15 days treatment 185 mg/kg i.p. once daily

Question: How did the “nociceptive scores (CYP-induced visceral pain) vs vehicle” value (“nociceptive scores … vs vehicle” below) ([1]; +2 h after CYP) turn out when `NC(=O)c1ccc[n+]([C@@H]2O[C@H](COP(=O)([O-])OP(=O)([O-])OC[C@H]3O[C@H]([n+]4cccc(C(N)=O)c4)[C@H](O)[C@@H]3O)[C@@H](O)[C@H]2O)c1` [Compound I-B] was run?
Answer: significant decrease

Question: And the “nociceptive scores … vs vehicle” value ([1]; +4 h after CYP)?
Answer: significant decrease

Question: And the “nociceptive scores … vs vehicle” value ([1]; +6 h after CYP)?
Answer: significant decrease

Question: What about the “nociceptive threshold (CYP-induced allodynia) vs vehicle” value ([1]; +6 h after CYP) of the same molecule?
Answer: significant increase

Question: What about the survival rate [2] of the same molecule?
Answer: 98 % of survival

Question: And the ejection fraction ([2]; 180 mg/kg i.p.)?
Answer: 60.0±0.6%

Question: And the fractional shortening ([2]; 180 mg/kg i.p.)?
Answer: around 38%

Question: And the heart rate ([2]; 180 mg/kg i.p.)?
Answer: 470.1±18.8 bpm

Question: And the “LV anterior and posterior wall thickness in systole” value ([2]; 180 mg/kg i.p., vs DOX vehicle)?
Answer: non-significant increases

Question: What about the “body weight loss after doxorubicin administration” value ([2]; 180 mg/kg i.p., vs DOX vehicle) of the same molecule?
Answer: significantly decreased

Question: What about the “end-systolic LV volume” value ([2]; 180 mg/kg i.p.) of the same molecule?
Answer: reduced

Question: What about the heart weight ([2]; 180 mg/kg i.p.) of the same molecule?
Answer: tended to increase heart weight

Question: And the “percentage of sickling cells” value (SS RBCs; D0 (start of treatment))?
Answer: 32%

Question: And the “percentage of sickling cells” value (SS RBCs; [3])?
Answer: less than 15%

Question: What does the source list for `NC(=O)c1ccc[n+]([C@H]2O[C@H](COP(=O)([O-])OP(=O)([O-])OC[C@H]3O[C@H]([n+]4cccc(C(N)=O)c4)[C@H](O)[C@@H]3O)[C@@H](O)[C@H]2O)c1` [Compound I-C]?
Answer: nociceptive scores (CYP-induced visceral pain) vs vehicle ([1]; +2 h after CYP): significant decrease; nociceptive scores (CYP-induced visceral pain) vs vehicle ([1]; +4 h after CYP): significant decrease; nociceptive scores (CYP-induced visceral pain) vs vehicle ([1]; +6 h after CYP): significant decrease; nociceptive threshold (CYP-induced allodynia) vs vehicle ([1]; +6 h after CYP): significant increase; survival rate [2]: 100 % of survival; ejection fraction ([2]; 180 mg/kg i.p.): 58.2±0.5%; fractional shortening ([2]; 180 mg/kg i.p.): around 38%; LV anterior and posterior wall thickness in systole ([2]; 180 mg/kg i.p., vs DOX vehicle): non-significant increases; body weight loss after doxorubicin administration ([2]; 180 mg/kg i.p., vs DOX vehicle): significantly decreased; heart rate (change in words) ([2]; 180 mg/kg i.p., vs DOX vehicle): increased heart rates; end-systolic LV volume ([2]; 180 mg/kg i.p.): reduced; heart weight ([2]; 180 mg/kg i.p.): tended to increase heart weight; percentage of sickling cells (SS RBCs; D0 (start of treatment)): 31%; percentage of sickling cells (SS RBCs; [3]): 20%

Question: Which results are given for `NC(=O)c1ccc[n+]([C@@H]2O[C@H](COP(=O)([O-])O)[C@@H](O)[C@H]2O)c1` [NMN, Nicotinamide Mononucleotide, reference compound]?
Answer: nociceptive scores (CYP-induced visceral pain) vs vehicle ([1]; +2 h after CYP): significant decrease; nociceptive threshold (CYP-induced allodynia) vs vehicle ([1]; +2 h after CYP): slight increase; nociceptive scores (CYP-induced visceral pain) vs vehicle ([1]; +4 h after CYP): significant decrease; nociceptive threshold (CYP-induced allodynia) vs vehicle ([1]; +4 h after CYP): slight increase; survival rate [2]: 78 % of survival; ejection fraction ([2]; 180 mg/kg i.p.): 56.9±0.6%; fractional shortening ([2]; 180 mg/kg i.p.): around 38%; LV anterior and posterior wall thickness in systole ([2]; 180 mg/kg i.p., vs DOX vehicle): non-significant increases; body weight loss after doxorubicin administration ([2]; 180 mg/kg i.p., vs DOX vehicle): significantly decreased; heart rate (change in words) ([2]; 180 mg/kg i.p., vs DOX vehicle): increased heart rates; reduction in plasma LDH release/levels ([2]; 180 mg/kg i.p., vs DOX vehicle): more than 35%; end-systolic LV volume ([2]; 180 mg/kg i.p.): reduced; percentage of sickling cells (SS RBCs; D0 (start of treatment)): 40%; percentage of sickling cells (SS RBCs; [3]): less than 10%

Question: What does the source list for `NC(=O)c1ccc[n+]([C@H]2O[C@H](COP(=O)([O-])O)[C@@H](O)[C@H]2O)c1` [Pro-Drug A, alpha-NMN, reference compound]?
Answer: nociceptive scores (CYP-induced visceral pain) vs vehicle ([1]; +2 h after CYP): decrease; nociceptive threshold (CYP-induced allodynia) vs vehicle ([1]; +2 h after CYP): non-significant increase; nociceptive scores (CYP-induced visceral pain) vs vehicle ([1]; +4 h after CYP): achieved the statistical level; nociceptive threshold (CYP-induced allodynia) vs vehicle ([1]; +4 h after CYP): significant increase
